Measurements reported in PMC12668308, “A Novel Antimalarial Agent that Inhibits Protein Synthesis in Plasmodium falciparum” (Angewandte Chemie (International Ed. in English), 2025).

Assays:
[1] = test system: 3D7^WT; assay: [3H]-hypoxanthine incorporation assay; assay type: cell-based; settings: Plasmodium falciparum, 3D7; 72-h assay; mean±s.d.; read-out: 3D7^WT IC50
Procedure: ^[a] 72-h [^3H] hypoxanthhine incorporation assay; Data is expressed as mean±s.d.. The assay was performed in three independent biological experiments, each in biological duplicates.
P. falciparum asexual blood stage parasites were cultured in human red blood cells (RBC, Blutspende SRK, Zurich) at a hematocrit of 5% in RPMI 1640 medium. The RPMI 1640 medium (ThermoFisher Scientific #51800−043) was supplemented with the following: 24 mM NaHCO3 (pH 7.3, Sigma-Aldrich #31437−500G-R), 25 mM Hepes (Sigma-Aldrich #H4034−500G), 0.36 mM hypoxanthine (Sigma-Aldrich # H9377−25G), 100 µg mL^-1 neomycin (Sigma-Aldrich #N6386−100G) and 0.5% Albumax II (Thermo Fisher #11021−045). Additionally, 2 mM choline chloride (279 mg/L, Sigma-Aldrich #C7527−100G) was added to the culture to block the induction of sexual commitment as described. ^[31^] The RPMI 1640 medium and components were dissolved in water (Milli-Q purified), stirred for at least 3 h, and then sterile filtered (0.22 μm pore size) with a bottle top filter (Corning # 431118). Parasite cultures were maintained in an atmosphere of 3% O2, 4% CO2, and 93% N2 in air-tight chambers at 37 °C. The [^3H]-hypoxanthine incorporation assay was used to test compound activity in the specific parasite lines as described.^[32^] Briefly, compounds were dissolved in DMSO (10 mM) and diluted in a hypoxanthine-free culture medium. A limiting dilution was performed over a 64-fold range (6-step twofold dilution) in a 96-well plate in duplicates. For every starting concentration, a limiting dilution was performed over a 64-fold range (6-step twofold dilution) in a 96-well plate in two biological duplicates. Parasites were added at 100 µL to each well containing the compound to obtain a final parasitemia of 0.3% and haematocrit of 1.25%. The plates were incubated for 48 h before 0.25 µCi of [^3H]-hypoxanthine was added per well for an additional 24 h. Parasites were harvested on a glass-fiber filter with a Microbeta FilterMate cell harvester (Perkin Elmer, Waltham, USA) and radioactivity was counted using a MicroBeta2 liquid scintillation counter (Perkin Elmer, Waltham, US). The results were recorded, processed by subtraction of the mean background signal obtained from the uninfected RBC controls and expressed as percentage of untreated controls. The fifty percent inhibitory concentration (IC50) was calculated by using nonlinear, four parameter (variable slope) curve fitting as described ^[33^] after importing into GraphPad Prism (version 8.3.0).

[2] = test system: 60S ribosomal protein L7 (W7KAU4); assay: iSPP profiling, P. falciparum lysate; assay type: binding, Plasmodium falciparum
[3] = test system: 3-hydroxyacyl-[acyl-carrier-protein] dehydratase (W7K0B9); assay: iSPP profiling, P. falciparum lysate; assay type: binding; settings: 100 µM compound 34
Procedure: (§1) P. falciparum NF54 lysates were extracted as described in ^[26^] . The parasite asynchronous culture was extracted once 3-5% parasitemia was reached. Saponin lysis was done as described in 2.2.10. Once the parasite pellet was obtained, 2.5 volumes of ice-cold lysis buffer (50 mM Tris/HCl pH 7.5 (Avantor), 5% glycerol (Sigma-Aldrich), 150 mM NaCl (Carl Roth), 1.5 mM MgCl2 (Sigma-Aldrich), 1 mM DTT (Carl Roth), 0.8% IGEPAL CA-630 (Sigma-Aldrich), 1X Halt Protease and Phosphatase Inhibitor-Cocktails EDTA-free (Thermo Fisher Scientific)) was added to the parasite pellet. The lysate solution was subjected to three cycles of flash freeze-thaw with liquid nitrogen and ddH2O at RT. The lysates were centrifuged at 20,000 g for 20 minutes at 4 °C. The soluble protein fraction (supernatant) was collected and the protein content was quantified using the BCA assay (Pierce™ BCA Protein Assay Kit, Thermo Fisher Scientific). The lysate was stored at -80 °C until further use.
(§2) The P. falciparum lysate was thawed on ice and diluted to 0.8 mg/mL. The lysate was aliquoted, and each aliquot was incubated with either a vehicle control (DMSO), 34 (dissolved in DMSO), or varying concentrations of 31 (dissolved in DMSO) at 0.01 µM, 0.1 µM, 10 µM, 50 µM, and 100 µM. Subsequently, the samples were incubated at room temperature for 30 minutes using a rotating mixer. After distribution into a 96-well plate, the samples were treated with increasing concentrations of A.E.A. (v/v) ranging from 14% to 28% (14, 16, 18, 20, 22, 24, 26, and 28%). Following a 20-minute incubation at 37°C with shaking at 750 rpm, the samples were centrifuged at 4400 g for 35 minutes to remove precipitated proteins. The soluble fractions were then pooled in equal volumes into a single sample using the Bravo Automated Liquid Handling Platform. […]
(§3) The raw LFQ-DIA intensity values of biological replicates across all conditions were normalized to the median abundance using Excel. […] Dose-dependent curves were generated using normalized protein intensity values, expressed as a ratio to the vehicle control. […]

[4] = target: Aquaglyceroporin (W7K5E1) (Plasmodium falciparum, UniProt Q8II36); assay: iSPP profiling, P. falciparum lysate; assay type: binding; settings: 100 µM compound 34
Procedure: as §1, §2, §3

[5] = target: Phosphatidylinositol 4-kinase (W7K9N9) (Plasmodium falciparum, UniProt W7K9N9); assay: iSPP profiling, P. falciparum lysate; assay type: binding; settings: 100 µM compound 34
Procedure: as §1, §2, §3

Chain of Aquaglyceroporin (W7K5E1) (Q8II36 whole entry, one chain of several): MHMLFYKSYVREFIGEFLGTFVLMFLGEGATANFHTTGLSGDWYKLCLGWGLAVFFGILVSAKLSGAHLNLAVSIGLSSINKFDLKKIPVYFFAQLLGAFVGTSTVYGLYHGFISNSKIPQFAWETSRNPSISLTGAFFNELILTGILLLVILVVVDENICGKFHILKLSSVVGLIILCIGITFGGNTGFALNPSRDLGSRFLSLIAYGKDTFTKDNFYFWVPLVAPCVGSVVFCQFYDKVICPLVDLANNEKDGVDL
Chain of Phosphatidylinositol 4-kinase (W7K9N9) (W7K9N9 entry or part of it): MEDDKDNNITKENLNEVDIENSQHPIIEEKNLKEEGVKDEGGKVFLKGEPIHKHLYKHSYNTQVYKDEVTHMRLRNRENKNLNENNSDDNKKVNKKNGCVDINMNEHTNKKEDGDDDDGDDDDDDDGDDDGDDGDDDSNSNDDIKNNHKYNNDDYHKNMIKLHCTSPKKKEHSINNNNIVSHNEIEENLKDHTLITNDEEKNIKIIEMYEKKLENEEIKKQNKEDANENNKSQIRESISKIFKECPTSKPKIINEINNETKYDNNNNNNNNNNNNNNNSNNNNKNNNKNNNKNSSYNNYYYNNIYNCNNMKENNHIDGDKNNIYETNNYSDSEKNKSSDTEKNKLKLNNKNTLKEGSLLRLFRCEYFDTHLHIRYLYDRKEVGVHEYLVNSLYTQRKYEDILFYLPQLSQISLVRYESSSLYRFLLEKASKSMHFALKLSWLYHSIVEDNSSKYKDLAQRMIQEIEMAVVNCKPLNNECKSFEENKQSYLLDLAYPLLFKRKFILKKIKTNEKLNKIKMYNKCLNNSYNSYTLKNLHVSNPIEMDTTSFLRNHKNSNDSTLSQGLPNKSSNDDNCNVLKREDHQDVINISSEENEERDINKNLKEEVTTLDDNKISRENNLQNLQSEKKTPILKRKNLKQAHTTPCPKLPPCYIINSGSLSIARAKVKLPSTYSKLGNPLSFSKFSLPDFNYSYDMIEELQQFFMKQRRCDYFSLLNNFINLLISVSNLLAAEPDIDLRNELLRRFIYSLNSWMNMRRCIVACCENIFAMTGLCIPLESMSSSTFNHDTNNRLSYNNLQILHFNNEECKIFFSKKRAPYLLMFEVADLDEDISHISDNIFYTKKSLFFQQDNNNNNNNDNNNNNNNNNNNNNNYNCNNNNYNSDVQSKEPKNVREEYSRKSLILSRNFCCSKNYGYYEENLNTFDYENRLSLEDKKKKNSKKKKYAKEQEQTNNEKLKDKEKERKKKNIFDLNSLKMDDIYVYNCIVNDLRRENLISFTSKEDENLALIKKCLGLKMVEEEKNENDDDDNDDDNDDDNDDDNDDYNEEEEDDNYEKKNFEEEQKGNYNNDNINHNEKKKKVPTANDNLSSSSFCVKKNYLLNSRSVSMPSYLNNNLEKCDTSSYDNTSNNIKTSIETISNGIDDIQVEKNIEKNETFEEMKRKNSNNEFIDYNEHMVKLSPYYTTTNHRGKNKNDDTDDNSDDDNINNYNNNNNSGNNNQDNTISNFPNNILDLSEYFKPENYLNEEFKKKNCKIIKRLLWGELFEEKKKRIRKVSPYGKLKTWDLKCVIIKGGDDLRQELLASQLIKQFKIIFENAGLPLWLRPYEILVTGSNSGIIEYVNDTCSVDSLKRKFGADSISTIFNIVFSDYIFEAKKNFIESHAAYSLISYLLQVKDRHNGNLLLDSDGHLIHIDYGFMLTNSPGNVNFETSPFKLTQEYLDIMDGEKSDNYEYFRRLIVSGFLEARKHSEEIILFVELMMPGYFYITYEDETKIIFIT

Compound	IC50 [1] [nM]	log2FC ([2]; 10 µM)	log2FC ([2]; 50 µM)	log2FC ([2]; 100 µM)	log2FC ([2]; 10^-2 µM)	log2FC ([2]; 10^-3 µM)	log2FC [3]	log2FC [4]	log2FC [5]
CN1CCN(Cc2ccc(O)c(NC(=O)c3cccc(Oc4cc(C(F)(F)F)ccn4)c3)c2)CC1 [Compound 31, N-(2-hydroxy-5-((4-methylpiperazin-1-yl)methyl)phenyl)-3-((4-(trifluoromethyl)pyridin-2-yl)oxy)benzamide]	2.4 ± 0.3	0.75	0.94	0.74	0.69	0.33	–	–	–
O=C(Nc1cc(CN2CCOCC2)ccc1F)c1cccc(Oc2cc(C(F)(F)F)ccn2)c1 [Compound 34, N-(2-Fluoro-5-(morpholinomethyl)phenyl)-3-((4-(trifluoromethyl)pyridin-2-yl)oxy)benzamide]	–	–	–	–	–	–	0.431	0.4199	0.5024
